Reference: US20240016777A1, “COMPOUNDS AND METHODS FOR TREATING VIRAL INFECTIONS” (priority 2020, published 2024)
pIC50: −log10 of the molar value. Like-named read-outs stand apart in the source and are kept apart here.

Tests used:
SARS-CoV-2 M^pro = SARS-CoV-2 M^pro (Severe acute respiratory syndrome coronavirus 2 (2019-nCoV) (SARS-CoV-2), UniProt P0DTD1); assay: biochemical; conditions: for remaining activity at 17 µM: compound at 17 μM, duplicates, 20 min pre-incubation, read-out: Activity (% enzyme activity by fluorescence relative to initial enzyme activity)
Mpro [1] = target: T1, Mpro (Severe acute respiratory syndrome coronavirus 2 (2019-nCoV) (SARS-CoV-2), UniProt P0DTD1); assay: Label free mass spectrometry assay of Mpro substrate cleavage; assay type: biochemical; conditions: 50 μM concentration
Mpro [2] = target: T1, Mpro; assay type: biochemical; conditions: jump dilution
SARS-CoV-2 [3] = assay: Vero E6-based SARS-CoV-2 replication assay (immunofluorescence of nucleocapsid protein); assay type: cell-based; conditions: Vero E6 cells
SARS-CoV-2 [4] = conditions: human ACE2 transgenic mouse, 50-200 mg/kg, crystal form; cited from earlier work
Vero E6 cells [5] = assay: Toxicity in Vero E6 cells / cell culture
Vero E6 cells [6] = system: Vero E6 cells

SMILES | pIC50 (SARS-CoV-2 M^pro; IC50 for inhibition of Mpro) | Inhibition of Mpro activity (mass spectrometry) (Mpro [1]) | remaining activity at 17 µM (SARS-CoV-2 M^pro) [%] | Reversibility of Mpro inhibition by dilution (Mpro [2]) | Inhibition of SARS-CoV-2 replication (in words) (SARS-CoV-2 [3]) | Mpro inhibitory activity (comparison in words) (SARS-CoV-2 M^pro) | other results
O=c1c(-c2c(O)cc(O)c3c(=O)cc(-c4ccc(O)cc4)oc23)c(-c2ccc(O)cc2)oc2cc(O)cc(O)c12 [3,8′-Biapigenin] | 4.82 to 5.30 | completely inhibited |  |  |  |  | 
O=c1cc(-c2ccc(O)c(-c3c(O)cc(O)c4c(=O)cc(-c5ccc(O)cc5)oc34)c2)oc2cc(O)cc(O)c12 [Amentoflavone] | 4.82 to 5.30 | completely inhibited | 10 to 80 | completely reversible |  |  | pIC50 (SARS-CoV-2 M^pro; IC50, compounds evaluated at 0.015-300 μM): 5.10
O=c1cc(-c2ccccc2)oc2cc(O)c(O)c(O)c12 [Baicalein] |  |  |  |  | antiviral activity |  | Body weight after SARS-CoV-2 infection (SARS-CoV-2 [4]): prevented reduction in body weight; Lung injury resulting from SARS-CoV-2 infection (SARS-CoV-2 [4]): decreased lung injury
COc1cc(-c2oc3cc(OC(C)=O)c(OC)c(OC(C)=O)c3c(=O)c2OC)ccc1OC(C)=O [Jaceidin triacetate] |  | completely inhibited | < 10 |  |  | comparable to or better than the previously described Mpro inhibitors baicalein and myricetin | pIC50 (SARS-CoV-2 M^pro; read-out: IC50 for inhibition of Mpro): 4.82 to 5.30; Toxicity in cells (Vero E6 cells [5]): toxic
O=c1cc(-c2ccc(O)cc2)oc2cc(O)cc(O)c12 [apigenin] | 4.76 |  |  | completely reversible | inhibits viral replication at concentrations at doses that are not toxic | somewhat less potent | Inhibition of SARS-CoV-2 replication at 50 μM (SARS-CoV-2 [3]; 50 μM): somewhat better than baicalein; Toxicity in cells (Vero E6 cells [6]): some toxicity
O=c1c(O)c(-c2cc(O)c(O)c(O)c2)oc2cc(O)cc(O)c12 [myricetin, reference compound] |  |  |  | resistant to dilution | somewhat less potently than PGHG, baicalein, or apigenin |  | Inhibition of SARS-CoV-2 replication (in words) (SARS-CoV-2 [3]; listed as Myricetin): inhibitory activity only at 100 μM
